{"source": "patent US8962918B2", "about": "“Polynucleotide sequence of fruit softening associated A-mannosidase and its uses for enhancing fruit shelf life” (National Institute of Plant Genome Research, priority 2008, dated 2015)", "molecules": {"B1": {"name": "tomato α-mannosidase (Solanum lycopersicum) (protein)", "chain": "KYMVYNTSQGIVSGKLNVHLVPHTHDDVGWLKTVDQYYVGSNNSIQVACVQNVLDSLIPALLADKNRKFIYVEQAFFQRWWRNQSPGMQSTVKQLVNSGQLESINGGWCMHDEAATHYIDMIDQTTLGHKYIKQQFNVTPRIGWQIDPFGTFCCSGIPSGSKGWIRLSFLWDALTTKDREKRKIEKSLEVIWRGSKSLSSSTQIFSGAFPQNYEPPSKFYFEVNDDNSLPVQDDVNLFDYNVQERVNDFVAAALSQANITRTNHIMWTMGTDFKYQYAHTWFRNMDKLIHYVNQDGRVNALYSSPSIYTDAKYALDESWPLKTDDYFPYADRINAYWTGYFTSRPALKLYVRMMSGYYLAARQLEFFKGRIETGPTTEILADALAIAQHHDAVSGTPKQHVADDYAKRLFIGYKQAEDLVSNSLACMVESASASGCKNPQINFKQCPLLNISYCPPTEADLAPGKKLVVVVYNALGWKRTDVVRIPVVNKNVIVEDSTGKEIESQLLPIVKESIVIRNYYAAAYFGESPTSSPKYWLVFTATVPPLGFSSYVITSGKQAVAASIPQTFYKTDGSQSDAVEVGPGNLKLLYSANGAKFTQYFNKRNQVRSSLEQSFSYYSADDGSKDDYKDIQASGAYVFRPNGSFPIHPEGKVPATILRGPLLDEVHQNINSWIYQITRVYKEKEHVEVEFTVGPIPIDNGIGKELVTQIQTDIKSNKTFYTDSNGRDFLKRVRDYRADWDLQVNQPAAGNYYPINLGLFLKDNNNEFSVLVDRSVGGSSLVDGQLELMLHRRLLNDDGRGVAEALNETVCALGKCMGLTVQGKYYIRIDSLGEGAKWRRSFGQEIYSPLLLAFTEQDGDKFTKFPVPTFTGMDPSYSLPDNVAIITLQELEDHTVLLRLAHLYEVDEDKDLSTKASVELKRLFPKRKINKIREMSLSANQERVEMEKKRLKWKAEAPSDLRDVARGGPVDPTKLMVELAPMEIRTFVIDLSQSVPEGWKSHMSL"}, "B2": {"name": "tomato α-mannosidase: enzyme purified from pericarp of breaker stage tomato; SEQ ID NO: 2 (protein, listed as Solanum lycopersicum)", "chain": "MKNMGKFEIWFLILMVCGLWVVEAKYMVYNTSQGIVSGKLNVHLVPHTHDDVGWLKTVDQYYVGSNNSIQVACVQNVLDSLIPALLADKNRKFIYVEQAFFQRWWRNQSPGMQSTVKQLVNSGQLESINGGWCMHDEAATHYIDMIDQTTLGHKYIKQQFNVTPRIGWQIDPFGTFCCSGIPSGSKGWIRLSFLWDALTTKDREKRKIEKSLEVIWRGSKSLSSSTQIFSGAFPQNYEPPSKFYFEVNDDNSLPVQDDVNLFDYNVQERVNDFVAAALSQANITRTNHIMWTMGTDFKYQYAHTWFRNMDKLIHYVNQDGRVNALYSSPSIYTDAKYALDESWPLKTDDYFPYADRINAYWTGYFTSRPALKLYVRMMSGYYLAARQLEFFKGRIETGPTTEILADALAIAQHHDAVSGTPKQHVADDYAKRLFIGYKQAEDLVSNSLACMVESASASGCKNPQINFKQCPLLNISYCPPTEADLAPGKKLVVVVYNALGWKRTDVVRIPVVNKNVIVEDSTGKEIESQLLPIVKESIVIRNYYAAAYFGESPTSSPKYWLVFTATVPPLGFSSYVITSGKQAVAASIPQTFYKTDGSQSDAVEVGPGNLKLLYSANGAKFTQYFNKRNQVRSSLEQSFSYYSADDGSKDDYKDIQASGAYVFRPNGSFPIHPEGKVPATILRGPLLDEVHQNINSWIYQITRVYKEKEHVEVEFTVGPIPIDNGIGKELVTQIQTDIKSNKTFYTDSNGRDFLKRVRDYRADWDLQVNQPAAGNYYPINLGLFLKDNNNEFSVLVDRSVGGSSLVDGQLELMLHRRLLNDDGRGVAEALNETVCALGKCMGLTVQGKYYIRIDSLGEGAKWRRSFGQEIYSPLLLAFTEQDGDKFTKFPVPTFTGMDPSYSLPDNVAIITLQELEDHTVLLRLAHLYEVDEDKDLSTKASVELKRLFPKRKINKIREMSLSANQERVEMEKKRLKWKAEAPSDLRDVARGGPVDPTKLMVELAPMEIRTFVIDLSQSVPEGWKSHMSL", "modifications": "Protein sequence of alpha mannosidase"}}, "key": {"[1]": {"system": "α-mannosidase gene expression", "test": "Geraniol/ACC treatment of seedlings, real-time RT-PCR of mannosidase expression", "assay_type": "in vivo, tomato (Pusa Ruby)", "conditions": "for regulation of α-mannosidase expression: rin and/or wild type, relative to control", "source_text": "Geraniol is an acyclic dietary monoterpene, having in vitro and in vivo antitumor activity against various cancer cell lines and is therefore considered as a new class of agents for cancer chemoprevention. It was also reported that geraniol interferes with the membrane functions of Candida albicans and Saccharomyces cervisiae. […] This instigated us to further analyze the role of geraniol on α-mannosidase induction in pleiotropic rin mutant. The rin seedlings were fed with 10% geraniol and samples collected.\nRNA was isolated according to the Lithium chloride method and quantified using nanodrop (ND-100). 5 μg of total RNA was reverse transcribed to cDNA using superscript II (Invitrogen). Quantitative RT-PCR was performed using light Cycler Version 4.05 (Roche diagnostics) with cyber green. The cycle consisted of initial 10 min Taq activation at 95° C. followed by 45 cycles, consisting of 10 s at 94° C., 10 s at 55° C. and 10 s at 72° C. Then the melt curve analysis was performed to verify the fidelity of the amplification. Using the 2^−ΔΔ CT method, the data is presented as the fold change in gene expression normalized to an endogenous reference gene and relative to the control. The gene encoding actin was used as the endogenous control.\nPusa Ruby seeds were sterilized and germinated on MS medium. After 15 days the seedlings were transferred to a liquid media containing 10 mM geraniol in 20% DMSO or 1 mM ACC (1-aminocyclopropane-1-carboxylic acid) in water. The RNA was isolated from the harvested sample and reverse transcribed to cDNA for real-time RT-PCR analysis. Expression was calculated relative to the control seedlings (0 hr)."}, "[2]": {"target": "T1, tomato α-mannosidase (Solanum lycopersicum, UniProt D3TI68)", "test": "N-linked oligosaccharide cleavage, HPAE chromatography", "assay_type": "biochemical", "conditions": "incubated at 37° C. overnight, Carbopac PA-1 column", "procedure": "(§1) The temperature and pH optimum for the enzyme was 45° C. and pH 6.0, respectively. […] To identify the nature of the tomato α-mannosidase it was resolved on SDS-PAGE and subjected to PAS staining, the protein stained positive for glycoproteins. […] In order to correlate specific activity at particular ripening stage with the protein accumulation, immunoblot analysis of all the stages was done using polyclonal antibody raised against 70 kD subunit of the protein homologus to α-mannosidase. […] Our finding was further reinforced by a report in Arabidopsis which classified α-mannosidase homologue (Q8LPJ3) into cell wall protein with a signal peptide for secretion. To decipher the role of α-mannosidase on N-glycans and their processing, we targeted three N-linked oligosaccharides (Oligomannose-3, Oligomannose-5 and Oligomannose-9) commonly found in the fruit pericarp. To verify its action on N-glycans, α-mannosidase was incubated with N-linked oligosaccharides at 37° C. overnight and the reaction mixture was resolved on Carbopac PA-1 column.\nOne μg of protein was incubated with 100 ng each of N-linked oligosaccharides (Dextra, U.K) at 37° C. overnight and the sample was filtered through PVDF membrane to remove the enzyme. 10 μl of the filtered sample was used for the analysis. An HPAE-PAD system (Dionex DX 500 BioLC) equipped with a gradient pump (GP 40), an anion exchange column (Carbopac PA-1, 4×250 mm) an eluant degas module (EDM-2) for pressurizing the eluants with argon was used for the analysis of monosaccharides. The separated monosaccharides were detected by an ED 40 detector equipped with a gold electrode and an Ag/AgCl reference electrode. The resulting chromatographic data was integrated and plotted using a PC based oracle 2 data acquisition system (Indtech Analytical, Bombay), The standard (mannose) was injected at a concentration of 100 nmoles before and after the analysis of each sample to confirm the results. This confirmed the N-glycan processing ability of mannosidase"}, "[3]": {"conditions": "cited from earlier work"}, "[4]": {"substrate": "O=[N+]([O-])c1ccc(O[C@H]2O[C@H](CO)[C@@H](O)[C@H](O)[C@@H]2O)cc1", "test": "Mannosidase enzyme assay and biochemical characterization", "set-up": "species or system tomato (Solanum lycopersicum)", "conditions": "other: purified tomato enzyme; pH 6.0", "procedure": "as §1\nMannosidase was assayed in one ml of the reaction mixture consisting of 940 μl of MQ, 20 μl of 20 mM substrate (pNP-α-D-mannopyrinoside) and 20 μl aliquot of the enzyme at 37° C. for 15 min along with a blank devoid of the enzyme. […] The colour developed as result of pNP release was recorded at 405 nm and quantified using a standard curve."}, "[5]": {"target": "T1, tomato α-mannosidase", "test": "Mannosidase enzyme assay and biochemical characterization", "procedure": "as §1\nMannosidase was assayed in one ml of the reaction mixture consisting of 940 μl of MQ, 20 μl of 20 mM substrate (pNP-α-D-mannopyrinoside) and 20 μl aliquot of the enzyme at 37° C. for 15 min along with a blank devoid of the enzyme. The reaction was stopped by adding of 40 μl of 0.5M Na2CO3. The colour developed as result of pNP release was recorded at 405 nm and quantified using a standard curve."}}, "note": "“Also recorded” adds a separate entry of the source."}
{"molecule": "NC1(C(=O)O)CC1", "note": "[ACC, 1-aminocyclopropane-1-carboxylic acid]", "values": [{"measurement": "regulation of α-mannosidase expression", "setting": "[1]; seedlings", "result": "up regulate"}]}
{"molecule": "CC(=O)N[C@H]1[C@H](O[C@H]2[C@H](O)[C@@H](NC(C)=O)C(O)O[C@@H]2CO)O[C@H](CO)[C@@H](O[C@@H]2O[C@H](CO[C@H]3O[C@H](CO)[C@@H](O)[C@H](O)[C@@H]3O)[C@@H](O)[C@H](O[C@H]3O[C@H](CO)[C@@H](O)[C@H](O)[C@@H]3O)[C@@H]2O)[C@@H]1O", "note": "(stereo partly drawn) [Oligomannose-3]", "values": [{"measurement": "cleavage by α-mannosidase", "setting": "[2]", "result": "able to cleave terminal mannose residue/s"}]}
{"molecule": "CC(=O)N[C@H]1[C@H](O[C@H]2[C@H](O)[C@@H](NC(C)=O)C(O)O[C@@H]2CO)O[C@H](CO)[C@@H](O[C@@H]2O[C@H](CO[C@H]3O[C@H](CO[C@H]4O[C@H](CO)[C@@H](O)[C@H](O)[C@@H]4O)[C@@H](O)[C@H](O[C@H]4O[C@H](CO)[C@@H](O)[C@H](O)[C@@H]4O)[C@@H]3O)[C@@H](O)[C@H](O[C@H]3O[C@H](CO)[C@@H](O)[C@H](O)[C@@H]3O)[C@@H]2O)[C@@H]1O", "note": "(stereo partly drawn) [Oligomannose-5]", "values": [{"measurement": "cleavage by α-mannosidase", "setting": "[2]", "result": "able to cleave terminal mannose residue/s"}]}
{"molecule": "CC(=O)N[C@H]1[C@H](O[C@H]2[C@H](O)[C@@H](NC(C)=O)C(O)O[C@@H]2CO)O[C@H](CO)[C@@H](O[C@@H]2O[C@H](CO[C@H]3O[C@H](CO[C@H]4O[C@H](CO)[C@@H](O)[C@H](O)[C@@H]4O[C@H]4O[C@H](CO)[C@@H](O)[C@H](O)[C@@H]4O)[C@@H](O)[C@H](O[C@H]4O[C@H](CO)[C@@H](O)[C@H](O)[C@@H]4O[C@H]4O[C@H](CO)[C@@H](O)[C@H](O)[C@@H]4O)[C@@H]3O)[C@@H](O)[C@H](O[C@H]3O[C@H](CO)[C@@H](O)[C@H](O)[C@@H]3O[C@H]3O[C@H](CO)[C@@H](O)[C@H](O)[C@@H]3O[C@H]3O[C@H](CO)[C@@H](O)[C@H](O)[C@@H]3O)[C@@H]2O)[C@@H]1O", "note": "(stereo partly drawn) [Oligomannose-9]", "values": [{"measurement": "cleavage by α-mannosidase", "setting": "[2]", "result": "able to cleave terminal mannose residue/s"}]}
{"molecule": "CC(C)=CCC/C(C)=C/CO", "note": "[geraniol]", "values": [{"measurement": "α-mannosidase transcript up regulated", "setting": "[1]; rin mutant seedlings fed with 10% geraniol, after 30 min", "result": "up to 6 fold"}, {"measurement": "up-regulation in mannosidase gene expression", "setting": "[1]; seedlings, geraniol in 20% DMSO, after 30 min, compared to control (DMSO only)", "result": "up to 3 fold"}, {"measurement": "regulation of α-mannosidase expression", "setting": "[1]; seedlings", "result": "upregulated; also recorded: induced"}, {"measurement": "solubility in water", "setting": "[3]", "result": "not soluble in water"}]}
{"molecule": "B1", "values": [{"measurement": "Km", "setting": "[4]", "result": 4.6, "unit": "mM"}]}
{"molecule": "B2", "values": [{"measurement": "pH optimum", "setting": "[5]", "result": 6.0}, {"measurement": "temperature optimum", "setting": "[5]", "result": 45, "unit": "°C"}, {"measurement": "thermal stability without considerable reduction in the activity", "setting": "[5]; for 1 hr", "result": "≤ 60", "unit": "°C"}]}
